Experimental data as given in patent US20220064260A1, “ISOLATED MHC-DERIVED HUMAN PEPTIDES AND USES THEREOF FOR STIMULATING AND ACTIVATING THE SUPPRESSIVE FUNCTION OF CD8+CD45RCLOW TREGS” (INSERM (INSTITUT NATIONAL DE LA SANTÉ ET DE LA RECHERCHE …, priority 2018, published 2022).

How the values were obtained:
CD8+CD45RClow Tregs [1] = test: Peptide stimulation assay (CD8+CD45RClow Treg activation by CD25 and CD69 expression); type: cell-based, human; conditions: 5-days culture, syngeneic CD8+CD45RClow Tregs and autologous HLA-A2+ pDCs, IL-2 and CpG ODN, peptide 120 μg/ml, versus control peptide
Procedure: Peptide Stimulation Assay
CD8^+ CD45RC^low Treg cells and autologous pDCs from the same healthy HLA-A2^+ donor were co-cultured in serum-free Texmacs medium (Miltenyi Biotec) supplemented with IL-2 (25 U/ml, Proleukin, Novartis), CpG ODN 2006 (0.5 μM) and the different synthesized peptides (120 μg/ml) at a ratio 4:1 of Tregs:pDCs for 5 days. CD8^+CD45RC^low Treg activation was analyzed based on expression of CD69 and CD25 markers. As negative control and in order to normalize the results, a negative peptide was used (ALIAPVHAV). Dapi was used as viability marker. As a positive control, CD8^+ CD45RC^low Tregs were stimulated with anti-CD3 (OKT3, 1 μg/ml) and anti-CD28 mAbs (clone: CD28.2; 1 μg/ml). Results were analyzed using the FACS Canto II cytometer (BD Biosciences) and Flowjo software (Tree Star, Inc. USA, version 10).
For the peptide activation test, a non-parametric Wilcoxon signed-rank test, comparing column median to a hypothetical value of 1.0, was done. Analyses were made with GraphPad Prism 7 software (GraphPad).
Four 16aa peptides were designed from four random human MHC class II alleles based on the sequences of the Du51 peptide (NREEYARFDSDVGEYR) and the overlapping 12-mer peptide Bu31-10 (YLRYDSDVGEYR) both bearing the SDVGEYR motif at C-term end (FIG. 1): Hpep1 (NQEESVRFDSDVGEFR-SEQ ID NO: 1), Hpep2 (NREEYARFDSDVGEFR-SEQ ID NO: 2), Hpep3 (NREEYARFDSDVGVYR-SEQ ID NO: 3) and Hpep4 (NREEYVRFDSDVGEYR-SEQ ID NO: 4). We individually tested these peptides differing at positions 2, 5, 6, 14 or 15 in a 5-days culture assay using and syngeneic CD8^+CD45RC^low Tregs and autologous HLA-A2^+ pDCs from the same individuals in presence of interleukin-2 (IL-2) and CpG oligodeoxynucleotides (or CpG ODN) in serum free Texmacs medium (FIG. 2). […] These three peptides share the conserved SDVGE-X-R (SEQ ID NO: 13) 7aa motif while Hpep3 has in addition a valine (V) in place of the glutamic acid (E) at position 14 of the peptide, probably impacting TCR recognition.

allograft = conditions: rats treated with the peptide only (WO2015/150492); cited from earlier work
CD4+CD25- T cells = test: Suppression assay (proliferation of CFSE-labeled CD4+CD25- Teffs stimulated with allogeneic APCs); type: cell-based, human; conditions: Tregs expanded 14 days, co-cultured 5 days at 1:1:1 with syngeneic CD4+CD25- T cells and pooled allogeneic APCs; compared to fresh Tregs
Procedure: CFSE-labeled CD4^+ CD25^− Teffs and CD8^+ CD45RC^low Tregs from the same healthy volunteer (HLA-A2^+) were co-cultured with a pool of allogeneic APCs from 3 different healthy donors (HLA-A2^−) in RPMI1640 medium supplemented with 5% human AB serum. Culture was done at 1:1:1 ratio (where 1=5×10^4 cells/well) for 5 days in triplicate in a V-bottom 96 well plate. Proliferation of CD4^+CD25^− responder T cells was analyzed by flow cytometry (FACS Canto II BD Biosciences TM) by gating on CD3^+CD4^+ living cells (DAPI negative) and using Flowjo software (Tree Star, Inc. USA, version 10).

CD8+CD45RClow Tregs [2] = test: Expansion in vitro of human CD8+CD45RClow Tregs; type: cell-based; conditions: 14 days culture with autologous APCs, IL-2, IL-15 and CpG ODN, versus day 0
Procedure: Expansion In Vitro of Human CD8^+CD45RC^low Tregs
5×10^5 CD8^+CD45RC^low Tregs and 2×10^6 autologous APCs from HLA-A2^+ healthy donors were seeded in a 24 well plate in Texmacs Medium (Miltenyi Biotec), supplemented with penicillin (100 U/ml), streptomycin (100 μg/ml), rhlL-2 (1000 U/ml, Proleukin, Novartis), rhIL-15 (10 ng/ml, Miltenyi Biotec), CpG (0.5 μM), and the different peptides (120 μg/ml) derived from HLA-II molecule (GenScript). As negative control, a negative irrelevant peptide (ALIAPVHAV) was used. As a positive control, CD8^+CD45RC^low Tregs were stimulated with plate-coated anti-CD3 (clone: OKT3, 1 μg/ml) mAb and soluble anti-CD28 mAb (clone: CD28.2; 1 μg/ml). At day 7, Tregs were counted and re-expanded. Cytokines were freshly added twice a week. Finally, at day 14, cells were used for experiments.
To determine whether CD8^+ CD45RC^low Tregs could be expanded using this MHC-II derived peptide, an expansion protocol was set up using sorted CD8^+CD45RC^low/− Tregs and APCs from the same individual with the Hpep2 peptide in presence of IL-2, IL-15 and CpG ODN and compared to a polyclonal stimulation (anti-CD3/28) in similar conditions (FIG. 4).

CD8+CD45RClow Tregs [3] = test: Extracellular and intracellular stainings of expanded Tregs (flow cytometry); type: cell-based, human; conditions: 14 days expansion, Hpep2 versus anti-CD3/28 expanded Tregs
Procedure: Extracellular and Intracellular Stainings
For the analysis of GITR (clone: DT5D3, Miltenyi Biotec), Foxp3 (clone:259D/C7, BD Biosciences), IL-10 (clone: JES3-9D7 , BD Biosciences), IL-34 (clone: IC5265P, R&D), TGFβ1 (clone: TW4-9E7, BD Biosciences) and IFNγ (clone: B27, BD Biosciences), CD8^+CD45RC^low Treg cells were stimulated with PMA (50 ng/ml) and ionomycin (1 μg/ml) for 5 h in presence of Brefeldin A (10 μg/ml) for the last 4 hours in Texmacs medium (Miltenyi Biotec). In order to select viable cells, Fixable Viability Dye eF506 (ThermoFisher Scientific) was used as viability marker. Fc receptors were blocked before staining (BD Biosciences) and cells were permeabilized with Fix/Perm kit (Ebiociences) for intracellular staining Cell phenotype was analyzed by flow cytometry using the LSR II (BD Biosciences, Mountain View, Calif.) and Flowjo software (Tree Star. Inc. USA, version 10).

| Sequence | CD25 expression on Tregs (CD8+CD45RClow Tregs [1]) | CD69 expression on Tregs (CD8+CD45RClow Tregs [1]) | allograft tolerance in recipient rats (allograft) | suppressive activity of expanded CD8+CD45RClow Tregs on an allogeneic immune response (CD4+CD25- T cells) | total Treg fold expansion (CD8+CD45RClow Tregs [2]) [fold] | level of expression of Foxp3, GITR, IL-10, IFNγ and IL-34 in expanded CD8+CD45RClow Tregs (CD8+CD45RClow Tregs [3]) |
| --- | --- | --- | --- | --- | --- | --- |
| NQEESVRFDSDVGEFR (listed as Homo sapiens) [Hpep1, 16aa peptide designed from a human MHC class II allele] | upregulated | upregulated | – | – | – | – |
| NREEYVRFDSDVGEYR (listed as Homo sapiens) [Hpep4, 16aa peptide designed from a human MHC class II allele] | upregulated | upregulated | – | – | – | – |
| NREEYARFDSDVGEYR [Du51, dominant MHC class II-derived antigen recognized by TCR-biased CD8+ Tregs in rats (WO2015/150492)] | – | – | donor-specific allograft tolerance induction | – | – | – |
| NREEYARFDSDVGEFR (listed as Homo sapiens) [Hpep2, 16aa peptide designed from a human MHC class II allele] | upregulated | upregulated | – | efficient at suppressing an allogeneic immune response | 10 | no significant differences |
